Experimental data taken from patent US20070004621A1, “Bex4 nucleic acids, polypeptides, and method of using” (priority 2003, published 2007).

Key:
[1] = test system: Bex4 transcription in OV207; test: Bex4 transcription in OV207 cells after 5-aza-dC treatment; assay type: cell-based, human; conditions: OV207 cell line
Description: Methylation at site 1 in these samples was associated with loss of Bex4 expression, as evidenced by semi-quantitative RT-PCR.

[2] = test system: Bex4 transcription in OV202 cells; test: Bex4 transcription (RT-PCR) in OV202 cells after 5-aza-2′-deoxycytidine treatment; assay type: cell-based, human; conditions: OV202 cells, 0, 1, 5, or 10 μM, 48 hours, PCR with Bex4 specific primers
Experimental: To determine if hypermethylation is responsible for inactivation of Bex4 expression in OvCa cell lines, OV202 cells were treated with 0, 1, 5, or 10 μM 5-aza-2′-deoxycytidine (a DNA methyltransferase inhibitor) for 48 hours. RNA was extracted, reverse transcribed, and analyzed by PCR using Bex4 specific primers.

[3] = test system: Bex4 expression in Xa cell line; test: Bex4 expression and site 1 methylation in Xa hybrid cell line after inhibitor treatment; assay type: cell-based; conditions: for Bex4 expression / transcription: Xa (active X) hybrid cell line, various concentrations
Experimental: To determine if methylation of site 1 controlled Bex4 expression in the Xa cell line, cells were treated with various concentrations of the methyltransferase inhibitor 5-aza-2′ deoxycytidine (5-aza-dC). […] Epigenetic inactivation Bex4 in Xa was specific, since two genes flanking Bex4, namely Bex3/NADE and pp21 homolog, were expressed in Xa.

Row | SMILES | Bex4 transcription [1] | transcription of Bex4 [2] | methylation of site 1 (bisulfite-modified DNA) ([3]; 5-aza-dC treated Xa cells) | Bex4 expression / transcription [3]
1 | Nc1ncn([C@H]2C[C@H](O)[C@@H](CO)O2)c(=O)n1 [5-aza-2′-deoxycytidine] | induced Bex4 transcription | dose dependant increase | demethylation of site 1 | dose-dependent increase
2 | CC(/C=C/C(=O)NO)=C\[C@@H](C)C(=O)c1ccc(N(C)C)cc1 [Trichostatin A, trichostatin A] |  |  |  | did not affect
